Series [1] concerns the target T1, NHE3 (Homo sapiens, UniProt P48764).
T1 construct: host or cells: cells, not specified
T1 sequence (P48764 26-834): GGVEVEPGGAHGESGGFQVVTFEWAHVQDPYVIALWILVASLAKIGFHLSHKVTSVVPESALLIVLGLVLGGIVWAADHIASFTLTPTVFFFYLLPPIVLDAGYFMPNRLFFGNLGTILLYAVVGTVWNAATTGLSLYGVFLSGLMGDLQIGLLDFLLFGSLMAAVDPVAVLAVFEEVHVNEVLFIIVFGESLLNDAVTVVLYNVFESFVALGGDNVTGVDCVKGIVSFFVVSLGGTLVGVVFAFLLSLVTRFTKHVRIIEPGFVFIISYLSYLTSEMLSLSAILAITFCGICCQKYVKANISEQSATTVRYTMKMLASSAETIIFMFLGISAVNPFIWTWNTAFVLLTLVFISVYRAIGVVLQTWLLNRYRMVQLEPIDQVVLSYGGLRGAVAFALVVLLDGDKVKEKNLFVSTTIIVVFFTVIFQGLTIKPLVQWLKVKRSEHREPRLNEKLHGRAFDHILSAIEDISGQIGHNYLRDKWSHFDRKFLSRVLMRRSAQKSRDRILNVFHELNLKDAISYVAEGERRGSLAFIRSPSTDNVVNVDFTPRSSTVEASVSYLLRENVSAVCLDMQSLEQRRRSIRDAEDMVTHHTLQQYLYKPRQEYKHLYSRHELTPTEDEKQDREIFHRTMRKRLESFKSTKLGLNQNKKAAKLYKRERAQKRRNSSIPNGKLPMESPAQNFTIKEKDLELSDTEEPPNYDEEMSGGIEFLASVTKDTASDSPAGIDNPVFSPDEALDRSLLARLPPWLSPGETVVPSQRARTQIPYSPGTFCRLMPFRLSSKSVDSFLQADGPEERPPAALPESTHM
Briefly: Determination of the NHE-inhibitory effect (recovery of intracellular pH after acidification, BCECF). The format is cell-based. Conditions: BCECF fluorescence, NHE subtype not given. As for the experimental part: [drawing 82] was obtained in analogy to the method indicated in Example 16 from 6,8-dichloro-2-methyl-4(R)-[2N-(2-ethoxy-3,4-dioxocyclobuten-1-yl)amino]-phenyl-1,2,3,4-tetrahydroisoquinoline (Example 6) and methylamine. Crystalline solid, m.p. 265° C. Pharmacological Data: Assay: Determination of the NHE-Inhibitory Effect
In this assay, the recovery of the intracellular pH (pHj) after an acidification which occurs even under bicarbonate-free conditions with functional NHE was determined. To this end, the pHj was determined using the pH-sensitive fluorescent dye BCECF (calbiochem, the precursor BCECF-AM was employed). The cells were initially loaded with BCECF. The BCECF fluorescence was determined in a ratio fluorescence spectrometer (Photon Technology International, South Brunswick, N.J., USA) with excitation wavelengths of 505 and 440 nm and an emission wavelength of 535 nm and converted into the pHj using calibration plots. The cells had been incubated in NH4Cl buffer (pH 7.4) for the BCECF loading (NH4Cl buffer: 115 mM NaCl, 20 mM NH4Cl, 5 mM KCl, 1 mM CaCl2, 1 mM MgSO4, 20 mM Hepes, 5 mM glucose, 1 mg/ml BSA; a pH of 7.4 was adjusted with 1 M NaOH). The intracellular acidification was induced by adding 975 μl of an NH4Cl-free buffer (see below) to 25 μl aliquots of the cells incubated in NH4Cl buffer. The subsequent rate of pH recovery was recorded for two minutes with NHE1, five minutes with NHE2 and three minutes with NHE3. To calculate the inhibitory power of the tested substances, the cells were initially investigated in buffers with which there was complete or absolutely no pH recovery. For complete pH recovery (100%), the cells were incubated in Na^+-containing buffer (133.8 mM NaCl, 4.7 mM KCl, 1.25 mM CaCl2, 1.25 mM MgCl2, 0.97 mM Na2HPO4, 0.23 mM NaH2PO4, 5 mM Hepes, 5 mM glucose, a pH of 7.0 was adjusted with 1 M NaOH). To determine the 0% value, the cells were incubated in an Na^+-free buffer (133.8 mM choline chloride, 4.7 mM KCl, 1.25 mM CaCl2, 1.25 mM MgCl2, 0.97 mM K2HPO4, 0.23 mM KH2PO4, 5 mM Hepes, 5 mM glucose, a pH of 7.0 was adjusted with 1 M NaOH). The substances to be tested were made up in the Na^+-containing buffer. The recovery of the intracellular pH at each tested concentration of a substance was expressed as a percentage of the maximum recovery. The IC50 of the respective substance for the individual NHE subtypes was calculated from the percentages of pH recovery using the Sigma Plot program.

A value given as a limit tells only on which side of the number the result lay.

From patent US7790742B2, “Substituted 4-phenyltetrahydroisoquinolines, pharmaceutical compositions thereof, methods for their preparation and therapeutic use” (Sanofi-Aventis Deutschland GmbH, priority 2004, dated 2010) come the findings set out here.

With `CCN(c1c(Nc2ccc([C@@H]3CN(C)Cc4c(Cl)cc(Cl)cc43)cc2)c(=O)c1=O)C(C)C` [Example 32], the melting point was in the range of 160 to 190 °C. The same molecule showed an IC50 in series [1] of 680 nM.

Regarding `CN1Cc2c(Cl)cc(Cl)cc2[C@H](c2ccc(Nc3c(N4CCCC4)c(=O)c3=O)cc2)C1` [Example 36, 6,8-dichloro-2-methyl-4(S)-[4N-(2-N-pyrrolidino-3,4-dioxocyclobuten-1-yl)amino]phenyl-1,2,3,4-tetrahydroisoquinoline], the melting point was in the range of 264 to 270 °C. In series [1], this molecule had a half-inhibitory concentration (IC50) of 230 nM.

For `CC(C)N(C)c1c(Nc2cccc([C@@H]3CN(C)Cc4c(Cl)cc(Cl)cc43)c2)c(=O)c1=O` [Example 31], the melting point was in the range of 135 to 150 °C. This molecule yielded an IC50 in series [1] of 130 nM.

As to `CC(C)N(C)c1c(Nc2ccccc2[C@@H]2CN(C)Cc3c(Cl)cc(Cl)cc32)c(=O)c1=O` [Example 42], the melting point was in the range of 210 to 214 °C. In series [1], this molecule registered an IC50 of 150 nM.

As for `CCN(CC)c1c(Nc2ccc(C3CN(C)Cc4c(Cl)cc(Cl)cc43)cc2)c(=O)c1=O` (stereo not shown) [Example 19, 6,8-dichloro-2-methyl-4-[4N-(2-diethylamino-3,4-dioxocyclobuten-1-yl)amino]phenyl-1,2,3,4-tetrahydroisoquinoline], the melting point is 275 to 280 °C. For the same molecule, inhibition in series [1] was half-maximal at 1150 nM (IC50).

`CCCN(C)c1c(Nc2cccc([C@@H]3CN(C)Cc4c(Cl)cc(Cl)cc43)c2)c(=O)c1=O` [Example 33] came in with a melting point of 135 to 140 °C. Moreover, half-maximal inhibition in series [1] (IC50) was put at 31 nM.

Regarding `CCN(CC)c1c(Nc2cccc([C@@H]3CN(C)Cc4c(Cl)cc(Cl)cc43)c2)c(=O)c1=O` [Example 30], the melting point lay within 125 to 135 °C. The same molecule displayed a half-inhibitory concentration (IC50) in series [1] of 140 nM.

`CCN(CC)c1c(Nc2ccc([C@@H]3CN(C)Cc4c(Cl)cc(Cl)cc43)cc2)c(=O)c1=O` [Example 27, 6,8-dichloro-2-methyl-4(S)-[4N-(2-diethylamino-3,4-dioxocyclobuten-1-yl)amino]phenyl-1,2,3,4-tetrahydroisoquinoline] registered a melting point of 220 to 225 °C. The molecule further displayed an IC50 in series [1] of 210 nM.

Molecule `CCCN(CC1CC1)c1c(Nc2ccc(C3CN(C)Cc4c(Cl)cc(Cl)cc43)cc2)c(=O)c1=O` (stereo not shown) [Example 29, 6,8-dichloro-2-methyl-4-[4N-(2-(N-cyclopropylmethyl-N-propylamino)-3,4-dioxocyclobuten-1-yl)amino]phenyl-1,2,3,4-tetrahydro-isoquinoline] displayed a melting point of 134 to 144 °C. For the same molecule, the IC50 in series [1] is 7140 nM.

On to `CN1Cc2c(Cl)cc(Cl)cc2C(c2ccc(Nc3c(N(C)Cc4ccccc4)c(=O)c3=O)cc2)C1` (stereo not shown) [Example 38], for which the melting point is 158 to 162 °C. In series [1], this molecule displayed an IC50 of 8000 nM.

`CC(C)CN(C)c1c(Nc2ccc(C3CN(C)Cc4c(Cl)cc(Cl)cc43)cc2)c(=O)c1=O` (stereo not shown) [Example 25, 6,8-dichloro-2-methyl-4-[4N-(2-(N-isobutyl-N-methylamino)-3,4-dioxocyclobuten-1-yl)amino]phenyl-1,2,3,4-tetrahydroisoquinoline] had a melting point above 310 °C. This molecule returned an IC50 in series [1] of 2810 nM.

Regarding `COCCN(C)c1c(Nc2ccc(C3CN(C)Cc4c(Cl)cc(Cl)cc43)cc2)c(=O)c1=O` (stereo not shown) [Example 26], the melting point lay within 206 to 210 °C. Also, in series [1], the IC50 was determined as 1700 nM.

As to `CN1Cc2c(Cl)cc(Cl)cc2C(c2ccc(Nc3c(N(C)C)c(=O)c3=O)cc2)C1` (stereo not shown) [Example 18, 6,8-dichloro-2-methyl-4-[4N-(2-dimethylamino-3,4-dioxocyclobuten-1-yl)amino]phenyl-1,2,3,4-tetrahydroisoquinoline], the melting point lay within 208 to 214 °C. This molecule came in with an IC50 in series [1] of 260 nM.

Molecule `CCCN(CCC)c1c(Nc2ccccc2[C@@H]2CN(C)Cc3c(Cl)cc(Cl)cc32)c(=O)c1=O` [Example 40] returned a melting point of 190 to 194 °C. Moreover, half-maximal inhibition in series [1] (IC50) was put at 240 nM.

In series [1], `CCCN(CCC)c1c(Nc2ccc(C3CN(C)Cc4c(Cl)cc(Cl)cc43)cc2)c(=O)c1=O` (stereo not shown) [Example 24, 6,8-dichloro-2-methyl-4-[4N-(2-dipropylamino-3,4-dioxocyclobuten-1-yl)amino]phenyl-1,2,3,4-tetrahydroisoquinoline] yielded an IC50 of 2490 nM.

On to `CC(C)N(C)c1c(Nc2ccc([C@@H]3CN(C)Cc4c(Cl)cc(Cl)cc43)cc2)c(=O)c1=O` [Example 28, 6,8-dichloro-2-methyl-4(S)-[4N-(2-(N-isopropyl-N-methylamino)-3,4-dioxocylcobuten-1-yl)amino]phenyl-1,2,3,4-tetrahydroisoquinoline], for which the melting point is 165 to 175 °C (dec.). This molecule also displayed a half-inhibitory concentration (IC50) in series [1] of 260 nM.

In turn, `CN1Cc2c(Cl)cc(Cl)cc2[C@H](c2cccc(Nc3c(N(C)C)c(=O)c3=O)c2)C1` [Example 22, 6,8-dichloro-2-methyl-4(S)-[3N-(2-dimethylamino-3,4-dioxocyclobuten-1-yl)amino]phenyl-1,2,3,4-tetrahydroisoquinoline] yielded an IC50 in series [1] of 98.5 nM.

The molecule `CCN(CC)c1c(Nc2ccccc2[C@@H]2CN(C)Cc3c(Cl)cc(Cl)cc32)c(=O)c1=O` [Example 39, 6,8-dichloro-2-methyl-4(R)-[2N-(2-diethylamino-3,4-dioxocyclobuten-1-yl)amino]phenyl-1,2,3,4-tetrahydroisoquinoline] had a melting point of 246 to 250 °C. It took 1520 nM to reach half-maximal inhibition in series [1] (IC50).

As to `CN1Cc2c(Cl)cc(Cl)cc2[C@H](c2cccc(Nc3c(N4CCCC4)c(=O)c3=O)c2)C1` [Example 34, 6,8-dichloro-2-methyl-4(S)-[3N-(2-N-pyrrolidino-3,4-dioxocyclobuten-1-yl)amino]phenyl-1,2,3,4-tetrahydroisoquinoline], the melting point lay in the range of 138 to 143 °C. For the same molecule, the half-inhibitory concentration (IC50) in series [1] is 52 nM.

The molecule `CN1Cc2c(Cl)cc(Cl)cc2[C@H](c2ccccc2Nc2c(N3CCCC3)c(=O)c2=O)C1` [Example 41, 6,8-dichloro-2-methyl-4(R)-[2N-(2-N-pyrrolidino-3,4-dioxocyclobuten-1-yl)amino]phenyl-1,2,3,4-tetrahydroisoquinoline] returned a melting point of 220 to 224 °C. In series [1], this molecule displayed an IC50 of 110 nM.

Molecule `CCCN(C)c1c(Nc2ccccc2[C@@H]2CN(C)Cc3c(Cl)cc(Cl)cc32)c(=O)c1=O` [Example 37] registered a melting point of 236 to 240 °C. In series [1], this molecule yielded an IC50 of 850 nM.
